Experimental data: patent publication US7858620B2, “Cyanoisoquinoline” (H. Lundbeck A/S, priority 2007, dated 2010)

Target: T1, PDE10A enzyme (Homo sapiens, UniProt Q9Y233)
T1 construct: made in house; host or cells: E. coli BL21(DE3)
Experiment: PDE10A inhibition assay, SPA
Assay type: biochemical
Settings: column head 2,1334003; unit inferred, nM
Method: Active PDE10A enzyme is prepared in a number of ways for use in PDE assays (Loughney, K. et al. Gene 1999, 234, 109-117; Fujishige, K. et al. Eur J Biochem. 1999, 266, 1118-1127 and Soderling, S. et al. Proc. Natl. Acad. Sci. 1999, 96, 7071-7076). PDE10A can be expressed as full-length proteins or as truncated proteins, as long as they express the catalytic domain. PDE10A can be prepared in different cell types, for example insect cells or E. coli. An example of a method to obtain catalytically active PDE10A is as follows: The catalytic domain of human PDE10A (amino acids 440-779 from the sequence with accession number NP 006652) is amplified from total human brain total RNA by standard RT-PCR and is cloned into the BamH1 and Xho1 sites of the pET28a vector (Novagen). Expression in coli is performed according to standard protocols. Briefly, the expression plasmids are transformed into the BL21(DE3) E. coli strain, and 50 mL cultures inoculated with the cells allowed to grow to an OD600 of 0.4-0.6 before protein expression is induced with 0.5 mM IPTG. Following induction, the cells are incubated overnight at room temperature, after which the cells are collected by centrifugation. Cells expressing PDE10A are resuspended in 12 mL (50 mM TRIS-HCl-pH8.0, 1 mM MgCl2 and protease inhibitors). The cells are lysed by sonication, and after all cells are lysed, TritonX100 is added according to Novagen protocols.
PDE10A and Pde3A assays can for example be performed as follows: PDE10A and Pde3A assays are performed in 60 uL samples containing a fixed amount of the relevant PDE enzyme (sufficient to convert 20-25% of the cyclic nucleotide substrate), a buffer (50 mM HEPES7.6; 10 mM MgCl2; 0.02% Tween20), 0.1 mg/ml BSA, 225 pCi of ^3H-labelled cyclic nucleotide substrate, tritium labeled cAMP to a final concentration of 5 nM and varying amounts of inhibitors. Reactions are initiated by addition of the cyclic nucleotide substrate, and reactions are allowed to proceed for one hr at room temperature before being terminated through mixing with 15 uL 8 mg/mL yttrium silicate SPA beads (Amersham). The beads are allowed to settle for one hr in the dark before the plates are counted in a Wallac 1450 Microbeta counter. The measured signal can be converted to activity relative to an uninhibited control (100%) and IC50 values can be calculated using the Xlfit extension to EXCEL.

T1 sequence (Q9Y233 716-1055): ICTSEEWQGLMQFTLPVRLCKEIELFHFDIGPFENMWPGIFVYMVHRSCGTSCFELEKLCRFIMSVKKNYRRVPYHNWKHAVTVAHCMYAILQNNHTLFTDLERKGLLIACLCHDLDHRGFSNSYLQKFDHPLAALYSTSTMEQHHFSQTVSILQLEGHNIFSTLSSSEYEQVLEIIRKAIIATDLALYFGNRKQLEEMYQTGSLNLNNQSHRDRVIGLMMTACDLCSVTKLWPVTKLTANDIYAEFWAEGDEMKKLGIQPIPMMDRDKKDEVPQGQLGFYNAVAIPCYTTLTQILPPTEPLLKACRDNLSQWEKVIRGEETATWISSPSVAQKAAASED

Row | SMILES | IC50
1 | COc1cc(OC)cc(C2CN(c3nc(C)c(C#N)c4cc(OC)c(OC)cc34)CCN2)c1 (stereo not drawn) [Compound 35, 1-[3-(3,5-Dimethoxy-phenyl)-piperazin-1-yl]-6,7-dimethoxy-3-methyl-isoquinoline-4-carbonitrile] | 710 nM
2 | COc1ccc(OC)c(C2CN(c3nc(C)c(C#N)c4cc(OC)c(OC)cc34)CCN2)c1 (stereo not drawn) [Compound 36, 1-[3-(2,5-Dimethoxy-phenyl)-piperazin-1-yl]-6,7-dimethoxy-3-methyl-isoquinoline-4-carbonitrile] | 960 nM
3 | COc1cc2c(N3CCNC(c4ccc(Br)cc4)C3)nc(C)c(C#N)c2cc1OC (stereo not drawn) [Compound 37, 1-[3-(4-Bromo-phenyl)-piperazin-1-yl]-6,7-dimethoxy-3-methyl-isoquinoline-4-carbonitrile] | 2600 nM
4 | COc1ccc2cc(C3CN(c4nc(C)c(C#N)c5cc(OC)c(OC)cc45)CCN3)ccc2c1 (stereo not drawn) [Compound 38, 6,7-Dimethoxy-1-[3-(6-methoxy-naphthalen-2-yl)-piperazin-1-yl]-3-methyl-isoquinoline-4-carbonitrile] | 980 nM
5 | COc1ccc(C2CN(c3nc(C)c(C#N)c4cc(OC)c(OC)cc34)CCO2)cc1 (stereo not drawn) [Compound 39, 6,7-Dimethoxy-1-[2-(4-methoxy-phenyl)-morpholin-4-yl]-3-methyl-isoquinoline-4-carbonitrile] | 930 nM
6 | COc1cc2c(N3CCN[C@H](c4ccccc4)C3)nc(C)c(C#N)c2cc1OC [Compound 40] | 520 nM
7 | COc1cc2c(N3CCNC(c4ccc(F)cc4)C3)nc(C)c(C#N)c2cc1OC (stereo not drawn) [Compound 41, 1-[3-(4-Fluoro-phenyl)-piperazin-1-yl]-6,7-dimethoxy-3-methyl-isoquinoline-4-carbonitrile] | 1200 nM
8 | COc1cc2c(N3CCNC(c4ccccc4OC)C3)nc(C)c(C#N)c2cc1OC (stereo not drawn) [Compound 42, 6,7-Dimethoxy-1-[3-(2-methoxy-phenyl)-piperazin-1-yl]-3-methyl-isoquinoline-4-carbonitrile] | 1400 nM
9 | COc1cc2c(N3CCNC(c4ccc5c(c4)OCO5)C3)nc(C)c(C#N)c2cc1OC (stereo not drawn) [Compound 43, 1-(3-Benzo[1,3]dioxol-5-yl-piperazin-1-yl)-6,7-dimethoxy-3-methyl-isoquinoline-4-carbonitrile] | 510 nM
10 | COc1cc2c(C#N)cnc(N3CCN[C@@H](c4ccccc4)C3)c2cc1OC [Compound 44, 6,7-Dimethoxy-1-((S)-3-phenyl-piperazin-1-yl)-isoquinoline-4-carbonitrile] | 410 nM
11 | COc1cc2c(C#N)cnc(N3CCN(C)C(c4ccc(C)cc4)C3)c2cc1OC (stereo not drawn) [Compound 45, 6,7-Dimethoxy-1-(4-methyl-3-p-tolyl-piperazin-1-yl)-isoquinoline-4-carbonitrile] | 350 nM
12 | CCc1ccc(C2CN(c3ncc(C#N)c4cc(OC)c(OC)cc34)CCN2)cc1 (stereo not drawn) [Compound 46, 1-[3-(4-Ethyl-phenyl)-piperazin-1-yl]-6,7-dimethoxy-isoquinoline-4-carbonitrile] | 1300 nM
13 | COc1cc2c(N3CCNC(c4ccc(N(C)C)cc4)C3)nc(C)c(C#N)c2cc1OC (stereo not drawn) [Compound 47, 1-[3-(4-Dimethylamino-phenyl)-piperazin-1-yl]-6,7-dimethoxy-3-methyl-isoquinoline-4-carbonitrile] | 1200 nM
14 | COc1cc2c(N3CCNC(c4cc(OC)c(OC)c(OC)c4)C3)nc(C)c(C#N)c2cc1OC (stereo not drawn) [Compound 48, 6,7-Dimethoxy-3-methyl-1-[3-(3,4,5-trimethoxy-phenyl)-piperazin-1-yl]-isoquinoline-4-carbonitrile] | 1500 nM
15 | COc1cc2c(N3CCN[C@@H](c4ccccc4)C3)nc(C)c(C#N)c2cc1OC [Compound 49, 6,7-Dimethoxy-3-methyl-1-((S)-3-phenyl-piperazin-1-yl)-isoquinoline-4-carbonitrile] | 460 nM
16 | COc1cc2c(N3CCNC(c4cccc([N+](=O)[O-])c4)C3)nc(C)c(C#N)c2cc1OC (stereo not drawn) [Compound 50, 6,7-Dimethoxy-3-methyl-1-[3-(3-nitro-phenyl)-piperazin-1-yl]-isoquinoline-4-carbonitrile] | 1100 nM
17 | COc1cc2c(N3CCNC(c4ccc(N5CCOCC5)cc4)C3)nc(C)c(C#N)c2cc1OC (stereo not drawn) [Compound 51, 6,7-Dimethoxy-3-methyl-1-[3-(4-morpholin-4-yl-phenyl)-piperazin-1-yl]-isoquinoline-4-carbonitrile] | 1500 nM

Row | SMILES | IC50
18 | COc1cc2c(C#N)cnc(N3CCN[C@H](c4ccccc4)C3)c2cc1OC [Compound 52, 6,7-Dimethoxy-1-(®-3-phenyl-piperazin-1-yl)-isoquinoline-4-carbonitrile] | 210 nM
19 | COc1ccc(C2CN(c3ncc(C#N)c4cc(OC)c(OC)cc34)CCN2)c(C)c1 (stereo not drawn) [Compound 53, 6,7-Dimethoxy-1-[3-(4-methoxy-2-methyl-phenyl)-piperazin-1-yl]-isoquinoline-4-carbonitrile] | 500 nM
20 | COc1ccc(C2CN(c3ncc(C#N)c4cc(OC)c(OC)cc34)CCN2)cc1F (stereo not drawn) [Compound 54, 1-[3-(3-Fluoro-4-methoxy-phenyl)-piperazin-1-yl]-6,7-dimethoxy-isoquinoline-4-carbonitrile] | 36 nM
21 | CCOc1ccc(C2CN(c3ncc(C#N)c4cc(OC)c(OC)cc34)CCN2)cc1 (stereo not drawn) [Compound 55, 1-[3-(4-Ethoxy-phenyl)-piperazin-1-yl]-6,7-dimethoxy-isoquinoline-4-carbonitrile] | 200 nM
22 | COc1ccc(C2CN(c3ncc(C#N)c4cc(OC)c(OC)cc34)CCN2)cc1Cl (stereo not drawn) [Compound 56, 1-[3-(3-Chloro-4-methoxy-phenyl)-piperazin-1-yl]-6,7-dimethoxy-isoquinoline-4-carbonitrile] | 81 nM
23 | COc1cc2c(C#N)cnc(N3CCNC(c4ccc(OC(C)C)cc4)C3)c2cc1OC (stereo not drawn) [Compound 57, 1-[3-(4-Isopropoxy-phenyl)-piperazin-1-yl]-6,7-dimethoxy-isoquinoline-4-carbonitrile] | 530 nM
24 | COc1ccc(C2CN(c3ncc(C#N)c4cc(OC)c(OC)cc34)CCN2)c(OC)c1 (stereo not drawn) [Compound 58, 1-[3-(2,4-Dimethoxy-phenyl)-piperazin-1-yl]-6,7-dimethoxy-isoquinoline-4-carbonitrile] | 850 nM
25 | CCOc1ccc(C2CN(c3ncc(C#N)c4cc(OC)c(OC)cc34)CCN2)cc1C (stereo not drawn) [Compound 59, 1-[3-(4-Ethoxy-3-methyl-phenyl)-piperazin-1-yl]-6,7-dimethoxy-isoquinoline-4-carbonitrile] | 650 nM
26 | COc1cc2c(C#N)cnc(N3CCNC(c4ccc(OC(F)(F)F)cc4)C3)c2cc1OC (stereo not drawn) [Compound 60, 6,7-Dimethoxy-1-[3-(4-trifluoromethoxy-phenyl)-piperazin-1-yl]-isoquinoline-4-carbonitrile] | 2300 nM
27 | COc1ccc([C@@H]2CN(c3ncc(C#N)c4cc(OC)c(OC)cc34)CCN2)cc1 [Compound 61, 6,7-Dimethoxy-1-[(R)-3-(4-methoxy-phenyl)-piperazin-1-yl]-isoquinoline-4-carbonitrile] | 1200 nM
28 | COc1ccc([C@H]2CN(c3ncc(C#N)c4cc(OC)c(OC)cc34)CCN2)cc1 [Compound 62, 6,7-Dimethoxy-1-[(S)-3-(4-methoxy-phenyl)-piperazin-1-yl]-isoquinoline-4-carbonitrile] | 47 nM
29 | COc1cc2c(C#N)cnc(N3CCNC(c4ccc(OC(C)C)c(C)c4)C3)c2cc1OC (stereo not drawn) [Compound 63, 1-[3-(4-Isopropoxy-3-methyl-phenyl)-piperazin-1-yl]-6,7-dimethoxy-isoquinoline-4-carbonitrile] | 870 nM
30 | COc1cc(C)c(C2CN(c3ncc(C#N)c4cc(OC)c(OC)cc34)CCN2)c(C)c1 (stereo not drawn) [Compound 64, 6,7-Dimethoxy-1-[3-(4-methoxy-2,6-dimethyl-phenyl)-piperazin-1-yl]-isoquinoline-4-carbonitrile] | 2100 nM
31 | COc1cc2c(C#N)cnc(N3CCNC(c4cc(C)c(OC)c(C)c4)C3)c2cc1OC (stereo not drawn) [Compound 65, 6,7-Dimethoxy-1-[3-(4-methoxy-3,5-dimethyl-phenyl)-piperazin-1-yl]-isoquinoline-4-carbonitrile] | 1700 nM
32 | COc1cc2c(C#N)cnc(N3CCNC(c4ccc5c(c4)OCCO5)C3)c2cc1OC (stereo not drawn) [Compound 66, 1-[3-(2,3-Dihydro-benzo[1,4]dioxin-6-yl)-piperazin-1-yl]-6,7-dimethoxy-isoquinoline-4-carbonitrile] | 130 nM
33 | COc1cc2c(C#N)cnc(N3CCNC(c4ccc(OCC(C)C)cc4)C3)c2cc1OC (stereo not drawn) [Compound 67, 1-[3-(4-Isobutoxy-phenyl)-piperazin-1-yl]-6,7-dimethoxy-isoquinoline-4-carbonitrile] | 1100 nM
